This is an account of results in patent US12343349B2, “Imipramine for use as an inhibitor of Fascin1 overexpression” (FUNDACION UNIVERSITARIA SAN ANTONIO, priority 2018, dated 2025).

The subject of one test is HCT116 cell line. Kind of test: Immunofluorescence of fascin1 localization and lamellipodia formation. The conditions noted are these: for filopodia lamellipodium formation: 24 h, migrastatin 100 μM, imipramine 20 μM, PD98059 50 μM, EGF 10 ng/ml; for Lamellipodia protrusion number: data not shown. Format: cell-based, human. As to the method: In order to assess the effect of imipramine on fascin1 localization and lamelipodia formation an immunofluorescence assay was performed. Round coverslips (Thermo Fisher, Waltham, MA USA) were seeded with HCT116 cell line in the presence of 10% FBS. After cells reached 100% confluence, serum supplemented medium was removed and replaced with fresh serum free medium for 24 h. Artificial wounding was performed by transversally dragging a sterilized razor blade on the central area of the coverslips. Coverslips were then placed in 6-well plate with 2 mL serum free DMEM and 100 μM migrastatin, 20 μM imipramine, Epidermal Growth Factor (EGF) 10 ng/ml and MEK inhibitor PD98059 50 μM (MEKi) (both from Sigma-Aldrich, St Louis, MO, USA) for 24 h. Cells were then fixed with Bouin (for fascin1 protein) or 4% formaldehyde (for actin protein) and subsequently permeabilized in a 0.3% Triton X-100/PBS solution, and then exposed to blocking buffer for 30 min. Samples were incubated for 1 h with anti-fascin1 antibody (1/250) (55K-2 clone; Santa Cruz Biotechnology, Heidelberg, Germany) or anti-β actin antibody (1/1000) (Sigma-Aldrich, St Louis, MO, USA) in a wet chamber.
Appropriate fluorescent-labelled primary antibodies were incubated later with Alexa fluor 488-conjugated anti-mouse IgG (from donkey) (1/400) or Alexa fluor 594-labelled phalloidin, respectively (1/1000) (Molecular Probes, Thermo Fisher Scientific, Waltham, MA USA) and Hoechst 33258 (Fluka, Biochemika, Sigma-Aldrich, St Louis, MO, USA) for 30 min at room temperature and darkness. Samples were examined and representative images were taken with a confocal microscope (LSM 510 META from ZEISS, Jena, Germany). The effect of imipramine on the fascin1 localization and the reorganization of the actin cytoskeleton, which includes the protrusion of the lamellipodium at the cell front filopodia formation and fascin1 localization, was assessed by immunofluorescence.

In test [1] the test system is HCT-116 colorectal cancer cell line. As to the kind of experiment: Cell migration (wound healing) assay, HCT-116. In kind it is cell-based, human. The conditions noted are these: for Migration (%): slope 4-7 h relative to control, imipramine 20 μM, migrastatin 100 μM. On the procedure:
(§1) Except for SW-480, imipramine effect was more pronounced than migrastatin, especially for DLD-1. Cell migration was studied with the three cell lines by performing the wound healing assay in the presence of 5% FBS. Cancer colorectal cells (50,000 cells) were plated in low 35-mm-dishes with culture inserts (Ibidi, Martinsried, Germany). After appropriate cell attachment and monolayer formation (around for 24 h), inserts were then removed with sterile forceps to create a wound field of approximately 500 μm, according to the manufacturer protocol. Detached cells were gently removed with phosphate buffered saline (PBS, Dubelco) before the addition of drugs. Confluent cells were incubated in one of the following treatments: 100 μM migrastatin (AnalytiCon Discovery, cat. No. NP-006108), and 20 μM imipramine ((purchased via Molport, Letonia) and, control dishes that were incubated in the presence of 0.1% DMSO. Cells were then allowed to migrate in a cell culture incubator for 24 h. At 0, 3, 5 and 7 h (linear growth phase), 10 fields of the injury area were photographed with an inverted and phase contrast microscopy at ×10 magnification incorporating a CCD camera. For each timepoint, the area uncovered by cells was determined by an image processing free software analysis with Image J software program.
(§2) The migration speed of the wound closure is given as the percentage of the recovered area at each time point, relative to the initially covered area (0 h). The velocity of wound closure (%/h) was calculated according to the formula: Slope (%/h)=((% covered area t_x)−(% covered area t_0))/((tx−t_0)). Slopes are then expressed as percentages relative to control conditions.

Another test has as its system HCT116 cells. Kind of test: Transwell invasion assay on Matrigel. As to conditions: 30 hours; migrastatin 100 μM, imipramine 20 μM. Format: cell-based, human. As to the method:
Tumor cell invasion not only involved the acquisition of migration properties but also the ability to degrade the extracellular matrix (ECM). For that reason, we performed a Transwell assay on Matrigel which resembles the ECM composition. The invasive capacities of HCT116 cells were determined using Cytoselect TM 24 Well Cell Invasion Assay (Basement Membrane Colorimetric Format) with coated Transwell chambers (8 μm pore size). Briefly, cells were resuspended with serum-free medium and treated with corresponding inhibitors (migrastatin 100 μM and, imipramine 20 μM). Cells (9.5×10^4) were seeded into the upper chamber, and in the lower chamber 500 μL of DMEM containing 10% FBS were added. After 30 hours of incubation, cells that remained on the upper chamber were scraped away with a cotton swab, and cells that migrated to the bottom of the filter were stained with the cell stain solution. The number of invaded cells was photographed under an inverted phase contrast microscope and quantified D.O.D by a spectrophotometer at λ=560 nm. Also we analyzed the invasive cells using the Image J software. […] A) Invasiveness of cells after treatment with different drugs. Pictures were taken under an inverted phase contrast microscope. The magnification was ×200 and scale bars=50 μm. B) Quantification of the invasive cells D.O. by a spectrophotometer at A=560 nm. […]

The subject of test [2] is DLD1 colorectal cancer cell line. Kind of test: Cell migration (wound healing) assay, DLD1. Format: cell-based, human. As to conditions: for Migration (%): DLD1, slope 4-7 h relative to control, imipramine 20 μM, migrastatin 100 μM. On the procedure:
as §1, §2

Test [3] has as its system SW-480 colorectal cancer cell line. Kind of test: Cell migration (wound healing) assay, SW-480. In kind it is cell-based, human. The conditions noted are these: for Migration (%): slope 4-7 h relative to control, imipramine 20 μM, migrastatin 100 μM. As to the method: as §1, §2
Test [4] addresses T1, fascin1 (Homo sapiens, UniProt Q16658).
T1 construct: purchased Hypermol, Bielefeld, Germany 8411-02
As to the kind of experiment: Differential Scanning Fluorimetry (Thermofluor) thermal shift assay. In kind it is binding. The conditions noted are these: for ΔTm at 1000 µM: vs free fascin1. As to the method:
Differential Scanning Fluorimetry (Thermofluor) assays were performed using a Biorad C1000 Touch Thermal Cycler CFX96 RT-PCR system in a 96-well format.
Imipramine was prepared at 10 mM in 100% DMSO and added to each well to a final concentration of 1 mM and 10% DMSO. Three replicates with six internal controls, containing only free protein in 10% DMSO, were included in the 96-well plates. The PCR plates were covered and subsequently shaken, centrifuged, incubated for 2 min at 20° C. inside the RT-PCR machine and heated from 20 to 100° C. at a 1° C./min scan-rate. Fascin1 thermal denaturation profiles were obtained recording the fluorescence intensity for the FAM, HEX and T-Red predefined filters. The derivative of the fluorescence curve was used to determine the Tm. Changes in Tm associated to ligand binding were estimated taking the average Tm value derived from the free protein internal controls.
[formula] Ff and Fb are the fluorescence signal (area or CM) of free and bound fascin1 and PT and LT are the total protein and ligand concentration, respectively, at each addition point. Tm values were measured as the minimum of the first derivative of the thermal unfolding profile.
In general terms: Differential scanning fluorimetry follows unfolding on heating by fluorescence.

For test [5], the target named is T1, fascin1. Kind of test: Fluorescence titration. The conditions noted are these: 25° C., 10% DMSO, 100 mM NaCl, 20 mM Hepes, pH 7.4; read-out: dissociation constant Kd. Format: binding. As to the method: Fascin1 was extensively dialized against the appropriate buffer prior to each titration experiment. Fascin1 concentration was determined by measuring absorbance at 280 nm using an extinction coefficient of 67840 cm-1-M-1. Fluorescence titration experiments were performed in a Cary Eclipse spectrofluorimeter (Varian Inc.). A 15 μM (14.7 μM) fascin1 solution was titrated with each compound by adding increasing volumes of concentrated solutions. Emission spectra were recorded between 307 and 500 nm at 25° C. in 10% DMSO, 100 mM NaCl, 20 mM Hepes, pH 7.4, with the excitation wavelength fixed at 280 nm. Binding isotherms were generated using either the changes in spectral area or in spectral centre of mass (CM), depending whether the change was only in fluorescence intensity or was also in the maximum emission wavelength.
The resulting curves were fitted using ORIGIN 7.0 (Microcal Inc.) and a one-site equilibrium binding model, according to the following equation:
[formula] Ff and Fb are the fluorescence signal (area or CM) of free and bound fascin1 and PT and LT are the total protein and ligand concentration, respectively, at each addition point. Tm values were measured as the minimum of the first derivative of the thermal unfolding profile. […]

For test [6], the system named is HCT-116 colorectal cell line. As to the kind of experiment: Myoma organotypic invasion model. As to conditions: HCT-116, 14 days, compared to control. In kind it is cell-based, human.
Description: To improve the reliability of the experimental model compared to the real tumor microenvironment, cancer cell invasion was assessed in the myoma organotypic cultures and performed according to the previously published myoma model (Åström, P., Heljasvaara, R., Nyberg, P., Al-Samadi, A., & Salo, 2018). Briefly, uterine leiomyoma tissues were obtained from routine surgery after informed consent of the donors and their use approved by The Ethics Committee of the Oulu University Hospital. The myoma tissue was sliced into 5 mm and disks were made with an 8-mm biopsy punch (Kai Industries Co., Gifu, Japan). Myoma disks were pre-incubated in 100 μM MGS, 10 μM and 20 μM imipramine or 0.1% DMSO-DMEM treatments at +4° C. for 48 h. The myoma disks were placed into Transwell inserts (diameter 6.5 mm; Corning Incorporated, Corning, NY) and 700,000 cells in 50 μl of media were added on top of each myoma disk. The cells were allowed to attach overnight and the myoma disks were transferred onto uncoated nylon disks resting on curved steel grids in 12-well plates with 12 well plates with 1 ml of media plus migrastatin and imipramine in each well. The cancer cells were left to invade the myoma disks for 14 days, while changing the treatment media every 3 days. Subsequently the myoma discs were fixed with 4% neutral buffered formalin at room temperature for 24 h, and processed for histology. […]
Test [7] has as its system colorectal cancer cell lines (DLD-1 and HCT-116) injected in zebra fish. As to the kind of experiment: Zebra fish larvae invasion model (xenograft). Format: in vivo. The conditions noted are these: DLD-1 and HCT-116 cells treated and injected in larvae. On the procedure: Finally, in order to find out whether the anti-invasive properties of imipramine could be extrapolable to an animal system, the well-established zebra fish larvae invasion model was used. A xenograft assay was carried out by stained with fluorescent CM-Dil (Vibrant, Invitrogen) two colorectal cancer cell lines (DLD-1 and HCT-116) and injected in zebra fish. The result obtained is referred to the percentage of cell invasion.
Injection and migration of different colorectal cancer cell lines in zebra fish model (A). Two colorectal cancer cell lines (DLD-1 and HCT-166) were treated with migrastatin and imipramine and injected in zebra fish larvae.

Read-outs that look alike come from different tables or passages of the source.

Take “EGF: Epidermal Growth Factor (migration stimulator)”: the filopodia lamellipodium formation entry in the test on HCT116 cell line was “prominent filopodia lamellipodium formation”.
Same read-out and setting: in the case of `COc1cccc(-c2cc(=O)c3ccccc3o2)c1N` [PD98059] it was “absent”.
Take `CO[C@H]1/C=C/CC/C=C/C(=O)O[C@H]([C@H](C)C(=O)CCCC2CC(=O)NC(=O)C2)/C(C)=C\[C@@H](C)[C@@H]1O` [migrastatin]: the filopodia lamellipodium formation entry in the test on HCT116 cell line is “absent”. Further, in the test with HCT116 cell line, the Lamellipodia protrusion number result is given as “significantly lower”. In addition, the “Migration (%)” value amounted to 44.59% in test [1], 67.91% in [2] and 70.34% in test [3]. Moreover, the “HCT-116 cell invasive ability (transwell)” value in the test with HCT116 cells is recorded as “inhibit tumor cell migration”.
The ΔTm is the shift of the melting midpoint relative to a reference. By Kd is commonly meant the equilibrium constant for the complex coming apart. Take `CN(C)CCCN1c2ccccc2CCc2ccccc21` [imipramine, 3-(10,11-dihydro-5H-dibenzo[b,f]azepin-5-yl)-N,N-dimethylpropan-1-amine]: on fascin1 [4] (1 mM compound, 2 μM fascin1, FAM filter), the “Tm, FAM” value was found to be 58.3 ± 0.6 °C. In addition, the thermal shift (ΔTm) at 1000 µM on fascin1 [4] (1 mM compound, 2 μM fascin1, FAM filter, read-out: ΔTm, FAM) stood at 2.7 ± 1.1 °C; at fascin1 [4] (1 mM compound, 2 μM fascin1, HEX filter, read-out: ΔTm, HEX) it was 2 °C; on fascin1 [4] (1 mM compound, 2 μM fascin1, T-Red filter, read-out: ΔTm, TRed), 1.8 ± 0.6 °C. The “Tm, HEX” value on fascin1 [4] (1 mM compound, 2 μM fascin1, HEX filter) is 58.0 ± 0.0 °C. On fascin1 [4] (1 mM compound, 2 μM fascin1, T-Red filter), the “Tm, TRed” value was found to be 58.0 ± 0.0 °C. For the same compound, the “increase in Tm” value at fascin1 [4] (text summary over filters) is “about 2 °C”. In addition, the filopodia lamellipodium formation result with HCT116 cell line was “absent”. The Lamellipodia protrusion number entry in the test on HCT116 cell line was “significantly lower”. For the same compound, the “inhibition of migration” value in test [1] (20 μM, p<0.05) is “remarkable inhibition of migration”; in [2] (DLD-1, 20 μM, p<0.05), “remarkable inhibition of migration”; in test [3] (20 μM, p<0.05) it was “remarkable inhibition of migration”. For the same compound, the “Migration (%)” value was determined as 43.25% in test [1], 23.21% in test [2] and 77.52% in test [3]. Moreover, the Kd at fascin1 [5] amounted to 390 µM. Besides, in [6], the area of invasion entry is “inhibits”. Moreover, the depth of invasion result in test [6] is on record as “inhibits”. For the same compound, in the test with HCT116 cells, the “HCT-116 cell invasive ability (transwell)” value is “inhibit tumor cell migration”. Further, the “cell invasion in zebra fish larvae” value in [7] is reported as “diminishing cell invasion is evident”.
